Results from US20240156790A1, “COMPOUNDS, COMPOSITIONS, AND METHODS FOR MODULATING FERROPTOSIS AND TREATING EXCITOTOXIC DISORDERS” (THE TRUSTEES OF COLUMBIA UNIVERSITY IN THE CITY OF NEW YORK, priority 2018, published 2024).
“Also recorded” adds a separate entry of the source. Like-named read-outs stand apart in the source and are kept apart here.

How the values were obtained:
[1] = Microsomal Stability Assay (Examples 6 and 8); assay type: in vitro ADME, mouse; conditions: for half-life at 20 µM: CD-1, mouse, liver microsomes; for microsomal stability / half-life, in words: assessed over two hours
Description: (§1) To a 96-well polypropylene plate was added phosphate buffer (182.2 μL, pH 7.4, 100 mM) followed by addition of NADPH-regenerating system solution A (10 μL), and NADPH regenerating system solution B (2 μL) (Corning Gentest 3P NADPH regenerating system solution A (#451220) and B (#451200)). A stock solution of analog (0.8 μL. 5 mM) or fer-1 (positive control) was added and the mixture was warmed to 37° C. for 5 min. Mouse microsomes (CD-1, 20 mg/mL, Life Technologies) (5 μL, thawed in 37° C. water bath before use) were added. The resulting reaction mixture was kept at 37° C. with gentle agitation for the duration of the experiment. At selected time points (0, 1, 5, 10, 20, 30, 60 and 120 min) aliquots (15 μL) were withdrawn from the plate and quenched upon addition to cold methanol (60 μL), containing an internal standard (5 μM) in a separate 96-well polypropylene plate. At the completion of the final time-point, the samples were centrifuged at 4,000 rpm for 5 min at 4° C. The supernatant (40 μL) was withdrawn and transferred to a sample vial with insert. The samples were analyzed by LC-MS. LC-MS analysis was performed on a platform comprising a Thermo Scientific Dionex Ultimate 3000 and a Bruker amaZon SL equipped with an electrospray ionization source controlled by Bruker Hystar 3.2. Chromatographic separation was performed by injecting 5 μL of the sample onto an Agilent Eclipse Plus C18 column (2.1×50 mm, 3.5 μm) maintained at 20° C. The flow rate was maintained at 400 μL/min. The initial flow conditions were 80% solvent A (water containing 0.1% acetic acid) and 20% solvent B (methanol containing 0.1% acetic acid). Solvent B was raised to 80% over 0.50 min by 1.50 min. Solvent B was raised to 100% by 5.00 min and held there for 3.25 min. […] All analogs were detected in positive mode as [M+H]*. The percent of compound remaining at each time-point was calculated as the ratio of the integrated compound peak over the internal standard peak and standardized to the t=0 time-point. Values were plotted in GraphPad Prism 9 and fit with a one phase decay.
as §1, with “and NADPH-regenerating” for “and NADPH regenerating”, “rpm (1872 g)” for “rpm”, “[M+H]*. […]” for “[M+H]*. The percent of compound remaining at each time-point was calculated as the ratio of the integrated compound peak over the internal standard peak and standardized to the t=0 time-point. Values were plotted in GraphPad Prism 9 and fit with a one phase decay.”

[2] = system: HT-1080 cells; experiment: Cell viability assays in HT-1080 cells, ferroptosis induced by IKE or RSL3 (Example 8); assay type: cell-based; conditions: for IC50: Homo sapiens, HT-1080, 48 h
[3] = system: modified bacteria sensitive to mutagenic agents; assay type: cell-based; conditions: […] to 82 μM, 3 days
Description: The AMES test uses modified bacteria sensitive to mutagenic agents to assess a compound's ability to cause direct DNA mutations. If the tested drug can induce reverse mutational events, it will cause bacteria to revert back to a prototrophic state and grow on media lacking selected nutrients. We tested TH-2-31, TH-4-55-2, and TH-4-67 using the AMES test. CFI-4082 was also included in the test for comparison. Bacteria strains were incubated under exposure to different concentrations of tested compounds for 3 days and collected 144 data points of mutation status at each concentration. The concentration ranged from 5.1 μM to 82 μM, which is the highest local organ concentration of our compounds in the above mice study (FIG. 12).
The Ames test uses modified bacteria sensitive to mutagenic agents to assess a compound's ability to cause direct DNA mutations. If a tested compound can induce revert mutational events, it will cause bacteria to revert back to a prototrophic state and grow on media lacking selected nutrients. We evaluated TH-2-31, TH-4-55-2, and TH-4-67 in the Ames test. We also included PHB4082 in this test. Bacteria strains were incubated under exposure to different concentrations of tested compounds for three days and 144 data points were collected on mutation status across a concentration range from 5.1 μM to 82 μM, which was the highest local organ concentration observed in previous mouse studies.

[4] = pH 7.4, text, read-out: half-life in mouse liver microsomes
[5] = ^b 2 μM IKE, 48 hours, 1,000 cells/well
[6] = ^c 0.2 μM RSL3, 48 hours, 1,000 cells/well
[7] = pH 7.4, independent test I, read-out: t1/2 I
[8] = pH 7.4, independent test II, read-out: t1/2 II
[9] = pH 7.4, independent test III, read-out: t1/2 III

Compound: CCOC(=O)c1ccc(NC2CCCCC2)c(N)c1 [Fer-1, Ferrostatin-1, reference compound]
- half-life at 20 µM [1, 4]: 0.04 h
- IC50 [2, 5]: 9.1 nM
- IC50 [2, 6]: 3.6 nM

Compound: CCC(CC)Nc1cc(-c2nc(C)no2)cnc1NC1CCCCC1 [TH-4-55-2, N^2-cyclohexyl-5-(3-methyl-1,2,4-oxadiazol-5-yl)-N^3-(pentan-3-yl)pyridine-2,3-diamine]
- half-life at 20 µM [1, 7]: > 2 h
- half-life at 20 µM [1, 8]: > 2 h
- half-life at 20 µM [1, 9]: > 2 h
- half-life at 20 µM [1, 4]: > 1 h
- microsomal stability / half-life, in words [1]: half-life greater than two hours
- mutagenic potential (Ames test result) [3]: none of the compounds had mutagenic potential

Compound: Cc1noc(-c2cnc(NC3CCCC3)c(NC3CCCC3)c2)n1 [TH-4-67, N^2,N^3-dicyclopentyl-5-(3-methyl-1,2,4-oxadiazol-5-yl)pyridine-2,3-diamine]
- half-life at 20 µM [1, 7]: > 2 h
- half-life at 20 µM [1, 8]: > 2 h
- half-life at 20 µM [1, 9]: > 2 h
- half-life at 20 µM [1, 4]: > 1 h
- microsomal stability / half-life, in words [1]: half-life greater than two hours
- mutagenic potential (Ames test result) [3]: none of the compounds had mutagenic potential

Compound: Cc1noc(-c2cnc(NC3CCCCC3)c(NC3CCCCC3)c2)n1 [TH-2-31, N^2,N^3-dicyclohexyl-5-(3-methyl-1,2,4-oxadiazol-5-yl)pyridine-2,3-diamine]
- half-life at 20 µM [1, 7]: > 2 h
- half-life at 20 µM [1, 8]: > 2 h
- half-life at 20 µM [1, 9]: > 2 h
- half-life at 20 µM [1, 4]: 0.5 to 1 h
- microsomal stability / half-life, in words [1]: the most stable; also recorded: half-life greater than two hours
- mutagenic potential (Ames test result) [3]: none of the compounds had mutagenic potential
- potency relative to fer-1 at suppressing ferroptosis, in words [2]: potencies greater than fer-1
- IC50 [2, 5]: 5.6 nM
- IC50 [2, 6]: 4.8 nM

Compound: Cc1noc(-c2ccc(NC3CCCCC3)c(NC3CCCCC3)c2)n1 [PHB4082, N1,N2-dicyclohexyl-4-(3-methyl-1,2,4-oxadiazol-5-yl)benzene-1,2-diamine]
- microsomal stability / half-life, in words [1]: half-lives greater than two hours
- potency relative to fer-1 at suppressing ferroptosis, in words [2]: more potent than fer-1
